Patent publication US20040009904A1, “APL immunoreactive peptides, conjugates thereof and methods of treatment for aPL antibody-mediated pathologies” (priority 1995, published 2004)
Where “and” joins values, the source holds several entries; their conditions need not be identical. Equal entries are not always repeated. Bridge positions count the residues as written; N and C are the ends. Peptide text beside a SMILES is read from it.

Legend:
[1] = tested on: ACA; assay: Structure Activity Relationship of the Crossreactive ACA Epitope (relative activity); format: binding, human; conditions: LJP 688 = 100
Excerpt: Peptide 6641/3G3 (LJP 688) was subjected to a number of analyses. The analyses included truncation at both the N-terminus and the C-terminus, disulfide substitution, substitution of alanine and glycine for amino acids in positions 2 through 8, substitution of branched aliphatic amino acids in positions 2, 4, 5 and 8, substitution of amino acids affecting conformation of the peptide, including substitution of α-methyl amino acids, substitution of basic amino acids in position 7, substitution of D-amino acids in positions 2 through 9, and the substitution of N-α-methyl amino acids in positions 1 through 9.

[2] = target: ACA-6635; assay: Competitive binding peptide ACA ELISA, cardiolipin/β2-GPI-coated plates; parameters: species or system human; conditions: ACA serum 6635 RS
[3] = target: ACA-6701; assay: as above; parameters: species or system human
Experimental: (§1) A variation of this assay uses microtitration plates coated with human β2-glycoprotein I/cardiolipin (β2-GPI/CL) instead of tetravalent peptide and tests the ability of monomeric peptides to block the binding of aPL antibody to the epitope(s) on β2-GPI/CL. In this assay, IgG-depleted human serum at an optimized concentration is used as a source of β2-GPI. The monomeric peptides at several concentrations are incubated with an optimized concentration of aPL antibody in a manner analogous to the assay which employs tetravalent peptide as a plate substrate. Following the incubation of aPL/peptide in (β2-GPI/CL) plates, antibody binding and the peptide concentration required for 50% inhibition is determined at half-maximal absorbance as in the tetravalent assay.
(§2) Peptide sequences for all five peptides immediately follow the table. All were tested using the competitive binding peptide ACA ELISA using CL/β2-GPI plates as described herein.
(§3) (B) Immulon I® 96-well, flat-bottom, polystyrene microtitration plates (Dynatech Laboratories, Inc., Chantilly, Va.) were coated with 30 μL/well of cardiolipin (CL, 50 μg; Sigma Chemical Co., St. Louis, Mo.) in ethanol. Two control wells received 30 μL ethanol only. After overnight evaporation at 4° C., each well was blocked with 200 μL of 5% (w/v) fish gelatin in PBS for 2 hours at RT.
(§4) The CL/β2-GPI microtitration plate was washed 5 times with TBS and 100 μL aliquots in duplicate from Eppendorf tubes #1, 2, 3, and 4 containing the antibody-peptide (or no peptide mixtures) were added to the wells. A volume of 100 μL from tube #4 was added to the duplicate control wells containing no cardiolipin. The microtitration plate was incubated for 1 hour at RT with agitation at 40 rpm in an orbital shaker (American Scientific, Rotator V), washed 5 times with TBS and then 100 μL of 1:1000 goat anti-human IgG alkaline phosphatase conjugate (Zymed, Cat No. 62-8422) in 0.5% (w/v) BSA-TBS was added. Following incubation for 1 hour at RT, the microtitration plate was again washed 5 times with TBS and the colorimetric enzyme detection developed by adding 100 μL of PMPP solution (7.8 g phenolphthalein monophosphate plus 69.5 g of 2-amino-2-methyl-1-propanol in 100 mL water stock solution diluted 1:26 with water). After 21 minutes, the reaction was stopped by adding 50 μL of 0.2 M Na2HPO4 (Mallinckrodt) to each well. Absorbance at 550 nm was read in a microplate reader (Bio-Tek Instruments, Model EL 311). The amount of peptide that inhibited ACA-6501 binding by 50%, the IC50, was calculated from the graph at the intersection of half-maximal absorbance with amount of peptide added.

[4] = target: ACA-7004; assay: as above; parameters: species or system human
Experimental: as §1, §2, §3, §4

[5] = target: ACA-6641; assay: as above; parameters: species or system human
Experimental: as §1, §2, §3, §4

[6] = target: ACA-6626; assay: as above; parameters: species or system human
Experimental: as §1, §2, §3, §4

[7] = target: ACA-6638; assay: as above; parameters: species or system human
Experimental: as §1, §2, §3, §4

[8] = target: ACA-6903; assay: as above; parameters: species or system human
Experimental: as §1, §2, §3, §4

[9] = target: ACA-7005; assay: as above; parameters: species or system human
Experimental: as §1, §2, §3, §4

[10] = target: ACA-6644; assay: as above; parameters: species or system human
Experimental: as §1, §2, §3, §4

[11] = tested on: ACA-6641; assay: Phage-capture ELISA; format: binding, human; conditions: ACA-6641 screen
Experimental: The phage-capture ELISA consists of the following steps. Microtitration wells are coated with aPL antibody and phage clones are added as in the micropanning assay. Unbound phage are washed away and the amount of bound phage is quantitated using an enzyme-conjugated goat antiserum which binds the major coat protein of the phage. Phage screened using phage-capture ELISA react with many aPL antibodies and provide a strong signal in subsequent ELISA assays. This intermediate level of sensitivity allows for greater efficiency in the peptide synthesis effort since few micropanning-positive phage are phage-capture ELISA positive. As a result, peptides synthesized from positive phage-capture ELISA phage are generally immunoreactive.
AffACA-6641 was isolated from 4 mL of plasma taken from patient number 6641. AffACA-6641 (10 μg) was incubated with the pooled p-III phage libraries in a final volume of 100 μL as described previously. Following four rounds of biopanning, 45 clones from the 3rd and 4th rounds were tested by micropanning. Of the 45, 23 scored negative. The 3rd round phage yielded two clones that scored 4+, two that scored 3+ and two that scored 2+. From the 4th round, one clone scored 4+, one scored 3+ and three scored 2+. […] Four base DNA sequencing gave the following translated peptide sequence: […]

[12] = tested on: ACA antibodies; assay: Competitive binding peptide ACA ELISA, cardiolipin/β2-GPI-coated plates, panel of ACA antibodies (average); parameters: species or system human
Experimental: as §1, §2
As noted in Section I above, one synthetic peptide, 6641/3G3 was tested against several high titer ACA antisera. This peptide appeared to be crossreactive with the vast majority of ACA antisera tested as illustrated in FIG. 14.
as §3, §4

[13] = target: ACA-6501; assay: Competitive binding peptide ACA ELISA, cardiolipin/β2-GPI-coated plates; parameters: species or system human
Procedure, shortened: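 Monomeric peptides at several amounts were preincubated ~1 h at RT with ACA-6501 serum (final 1:400), then added to cardiolipin-coated, fish-gelatin-blocked plates with β2-GPI for 1 h at RT. Bound IgG was detected with alkaline phosphatase anti-human IgG and phenolphthalein monophosphate, read at 550 nm. IC50 was the peptide amount at half-maximal absorbance.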

[14] = peptide 1 mg/mL, affinity purified antibody

SMILES: CC(C)C[C@@H]1NC(=O)[C@@H](NC(=O)[C@@H]2CCCN2C(=O)CNC(=O)[C@H](C)N)CSSC[C@@H](C(=O)N2CCC[C@H]2C(=O)NCC(=O)O)NC(=O)[C@H](CC(C)C)NC(=O)[C@H](CCCCN)NC(=O)CNC(=O)[C@H](CC(C)C)NC(=O)[C@H](C(C)C)NC(=O)CNC1=O [LJP 688, AGP-CLGVLGKLC-PG] (H-AGPCLGVLGKLCPG-OH; disulfide 4-12)
- Relative Activity [1]: 100
- IC50 for peptide LJP 688 [2]: 1000 µg/mL
- IC50 for peptide LJP 688 ([3]; ACA serum 6701 RS): 1070 µg/mL
- Percent Inhibition of AffACA by Peptide Monomers, 6701 [3, 14]: 100%
- IC50 for peptide LJP 688 ([4]; ACA serum 7004 RFL): 670 µg/mL
- Percent Inhibition of AffACA by Peptide Monomers, 7004 [4, 14]: 100%
- IC50 for peptide LJP 688 ([5]; ACA serum 6641 RS): 890 µg/mL and 510 µg/mL
- Percent Inhibition of AffACA by Peptide Monomers, 6641 [5, 14]: 93%
- IC50 for peptide LJP 688 ([6]; ACA serum 6626 RS): 1090 µg/mL
- Percent Inhibition of AffACA by Peptide Monomers, 6626 [6, 14]: 100%
- IC50 for peptide LJP 688 ([7]; ACA serum 6638 RS): 810 µg/mL
- Percent Inhibition of AffACA by Peptide Monomers, 6638 [7, 14]: 100%
- IC50 for peptide LJP 688 ([8]; ACA serum 6903 RS): 800 µg/mL
- Percent Inhibition of AffACA by Peptide Monomers, 6903 [8, 14]: 100%
- IC50 for peptide LJP 688 ([9]; ACA serum 7005 RFL): 750 µg/mL
- Percent Inhibition of AffACA by Peptide Monomers, 7005 [9, 14]: 95%
- IC50 for peptide LJP 688 ([10]; ACA serum 6644 RS): 760 µg/mL
- Percent Inhibition of AffACA by Peptide Monomers, 6644 [10, 14]: 100%
- result in the phage-capture ELISA [11]: strongly positive
- complete inhibition, cross-reactivity with 10 of 10 ACA antibodies ([12]; at 1.8 mg/mL): > 80%
- IC50 for peptide LJP 688, mean ± sd ([12]; mean over ten ACA sera): 860 ± 160 µg/mL
- Percent Inhibition of AffACA by Peptide Monomers, Ave. ([12]; peptide 1 mg/mL, average over nine antibodies): 97%
- IC50 for peptide LJP 688 ([13]; ACA serum 6501 RS, RFL): 890 µg/mL and 1100 µg/mL
- with ACA 6501 150 ug/mL ([13]; Optimization of Peptide 3G3, inf = no 50% inhibition): 850 µg/mL
- Percent Inhibition of AffACA by Peptide Monomers, 6501 [13, 14]: 86%
